Entries after “also recorded” stand apart in the source; their conditions may differ.
Legend:
[1] = system: SNARE-mediated vesicle fusion (v-vesicles without PS); test: In vitro lipid-mixing (FRET) assay with v-vesicles prepared with 0% PS; format: biochemical; settings: v-vesicles 0% PS
Description: Figure 3 α-Syn monomer interactions with the lipid membrane enable cooperative inhibition of vesicle fusion. (A) The effect of the lipid-binding-deficient mutant of the α-Syn monomer (T44P/A89P) on fusion inhibition. v-Vesicles (V) were incubated with the T44P/A89P monomer for 10 min, and then α-Syn oligomers and t-vesicles (T) were added to the premixture. T and V (20 μM lipid concentration) were mixed together at 37 °C without α-Syn (T-V, gray line). […] A control measurement using soluble Syb2 confirmed that lipid mixing was driven by SNARE complex formation (beige line). Bar graphs were obtained from the values at 2000s from the FRET measurements (± SEM, N = 3). *P < 0.05, **P < 0.01, ***P < 0.001 by Student’s t test. (B) The effect of the negatively charged lipid (PS) on fusion inhibition. v-Vesicles (V) prepared with 0% PS were used in the measurement. v-Vesicles without PS were incubated with wild-type α-Syn monomer, and then t-vesicles (T) and oligomers were added to the premixture. […]
(§1) t-Vesicles labeled with DiI and v-vesicles labeled with DiD were mixed together to reach a 20 μM lipid concentration. […] We used 532-nm light for excitation and detected the FRET signal (at 690 nm) every 10 s using a temperature-controlled fluorescence spectrophotometer (Cary Eclipse, Agilent) at 37 °C.

[2] = system: neuronal SNARE-mediated vesicle fusion (t-SNAREs syntaxin HT/SNAP25 and v-SNARE Syb2); test: In vitro lipid-mixing (FRET) assay of SNARE-mediated vesicle fusion, v-vesicles with PS; format: biochemical
From the text: To address this question, we performed an in vitro lipid-mixing assay using fluorescently labeled proteoliposomes[31],[32]. In this assay, t-SNAREs [complexes of syntaxin Habc-trunctated (HT) (amino acids 168–288 of syntaxin 1A, lacking the Habc domain) and synaptosomal-associated protein-25 (SNAP25)] and v-SNARE Syb2 were incorporated into two different liposomes (t- and v-vesicles, respectively)[15],[31]. When t-vesicles doped with donor dyes (T) and v-vesicles doped with acceptor dyes (V) were fused together through SNARE complex formation[31],[33],[34], the lipids from the two types of vesicles mixed (Fig. 1B). This lipid mixing was monitored by the fluorescence resonance energy transfer (FRET) signal between 1,1′-dioctadecyl-3,3,3′,3′-tetramethylindocarbocyanine perchlorate (DiI) and 1,1′-dioctadecyl3,3,3′,3′-tetramethylindodicarbocyanine perchlorate (DiD) dyes (Supplementary Fig. S1B). α-Syn oligomers were prepared by incubating the α-Syn monomer (15 μM) with dopamine (100 μM) at 37 °C for 72 h (Supplementary Fig. S2A) and purified using size exclusion chromatography (Supplementary Fig. S2B and C)[15],[35]–[37]. We have estimated that the oligomers contain approximately 17 α-Syn monomeric subunits in our previous work[15]. Without the addition of α-Syn oligomers, the T-V mixture presented a significant mixing of lipids (Fig. 1C, the gray line).
We prepared three 30-residue peptides (CFα1, CFα2, and CFα3) that were mainly derived from the C-terminal domain of α-Syn (Anygen, South Korea) (Fig. 5A; Table 1) because the C-terminal domain of α-Syn (a.a. 96–140) is known to bind to the N-terminal domain of Syb2[26]. We confirmed the binding between the peptide and Syb2 using fluorescence anisotropy assay (Supplementary Fig. S8). […]
as §1

Syb2-carrying v-vesicles = test: Cryo-EM of v-vesicle clustering
Description: Then, we tested the effect on vesicle clustering. We have proposed that α-Syn oligomers inhibit vesicle fusion by clustering synaptic vesicle mimics in vitro, thereby limiting the number of vesicles available for docking. A few micromolar α-Syn monomer is also known to induce vesicle clustering[27],[29],[30],[38]. Thus, it is possible that the α-Syn monomer by itself cannot induce vesicle clustering at the low concentration (less than 1 μM) that we applied in this work but assists α-Syn oligomers in clustering vesicles. We obtained images of v-vesicles treated with α-Syn oligomers in the presence and absence of monomers using cryo-electron microscopy (cryo-EM) (Fig. 2). The molar ratio of lipid: α-Syn oligomers: α-Syn monomers was 200:1:20. When more than ten vesicles were attached together, we assigned them as a vesicle clustering. In the absence of α-Syn, v-vesicles appeared without clustering (Fig. 2A). […] Cryo-EM could not resolve α-Syn oligomers because of its resolution limit. Since α-Syn oligomers are known to inhibit vesicle fusion through binding to the N-terminal domain of Syb2[15], we tested if their specific interactions with Syb2 are responsible for clustering the vesicles. We reconstituted v-vesicles with Syb2 lacking the N-terminal region (nt-Syb2, amino acids 29–116) and incubated them with α-Syn oligomers. […] While 22.7 ± 1.2 vesicles consisted of a cluster with α-Syn oligomers, 123.5 ± 11.5 vesicles clustered after the addition of α-Syn monomers together with oligomers. […] Although it is difficult to quantify the fraction of the flattened region, this structure was not observed in images of vesicles treated with α-Syn oligomers only (Fig. 2C, enlarged image). The addition of α-Syn monomer with α-Syn oligomers seemed to induce tighter adhesion between the vesicles.
v-Vesicles were incubated with α-Syn (molar ratio of lipid:α-Syn oligomer: monomer = 200:1:20). A 200-mesh carbon grid (Electron Microscopy Sciences) was glow-discharged using the PELCO easiGlow plasma cleaning system (Ted Pella, Inc.). […]

[3] = system: α-Syn oligomers and monomers; test: Western blot of α-Syn monomer incubated with preformed oligomers; settings: α-Syn monomer (500 nM) with preformed oligomers (10 nM), no dopamine, 37 °C, 12 h / up to 10 hours (Fig. S4)
Description: We first tested whether the incubation of the α-Syn monomer with oligomers increases the amount of α-Syn oligomers. […] This is consistent with previous work showing that dopamine-modified α-Syn oligomers are not seeding competent.
Purified proteins were subjected to 15% SDS/PAGE and then transferred to polyvinylidene fluoride membranes (Bio-Rad), which were then blocked with 5% (w/v) skim milk in Tris-buffered saline with 0.1% Tween 20 detergent (TBST) (500 mM Tris, pH 8.5; 150 mM NaCl; […]) for 1 h and incubated with α-Syn primary antibody [sc-52979 (Santa Cruz Biotechnology) at a 1:750 dilution factor] for 12 h at 4 °C. The membrane was rinsed with TBST, incubated with anti-mouse IgG peroxidase secondary antibody (Sigma; 1:2500 dilution factor), washed again with TBST, and reacted with chemiluminescent substrate solution (ThermoFisher Scientific, SuperSignal West Pico Chemiluminescent Substrate) for 1 min. Resulting bands were detected using an LAS-4000 instrument (Fujifilm Life Science).
Fig. S4. […] Vesicle compositions are 73% PC, 20% cholesterol, and 7% PS. α-Syn monomers (500 nM) were incubated with the purified dopamine-induced oligomers (10 nM) at 37 ℃ for up to 10 hours and then the mixtures were applied to the Western blot analysis and probed with anti–α-Syn antibody. […] The image was edited by Adobe Illustrator CS6 (Adobe).

[4] = system: SNARE-mediated vesicle docking; settings: nonaggregated α-Syn monomer, 10 μM; ref [42]; cited from earlier work
From the text: For the molecular mechanism of the inhibition, we proposed that α-Syn oligomers interfere with vesicle docking by clustering vesicles. […] Nonaggregated α-Syn or its monomer uses its interaction with Syb2 to help SNARE complex assembly[26] and induces the clustering of vesicles or Syb2, which promotes SNARE complex formation[25],[30]. […] All the functions of the α-Syn monomer are beneficial for neurotransmitter release.

## α-synuclein [α-Syn monomer]
[1]; 2 μM wild-type α-Syn monomer with α-Syn oligomers, 37 °C, at 2000 s, N = 3
  recovery of SNARE-mediated lipid mixing: ~100%
[1]; wild-type α-Syn monomer (200 nM to 2 μM) with α-Syn oligomers
  effect on fusion inhibition by oligomers: the FRET signal increased; also recorded: attenuated
[2]; 10 nM α-Syn oligomers + 850 nM α-Syn monomer, monomer pre-incubated with V 10 min, 37 °C, at 1800 s, N = 3
  fusion efficiency (relative lipid mixing): 25%
[2]; wild-type α-Syn monomer together with 10 nM α-Syn oligomers, 37 °C
  effect on fusion inhibition by oligomers: more severe inhibition of vesicle fusion between T and V was observed as the concentration of α-Syn monomer increased; also recorded: the FRET signal was lower than that of the α-Syn oligomer-treated vesicle fusion
[2]; α-Syn monomer alone, 200–850 nM, 10 min incubation with v-vesicles, N = 3
  effect on lipid mixing: negligible effect on lipid mixing; also recorded: no effect on SNARE-mediated lipid mixing; also recorded: negligible effect on SNARE-mediated vesicle fusion
Syb2-carrying v-vesicles; α-Syn monomer alone, lipid:monomer 10:1 (5 μM:0.5 μM)
  clustering of v-vesicles: no clustering of v-vesicles was observed
Syb2-carrying v-vesicles; α-Syn monomer and oligomers, lipid:oligomers:monomers 200:1:20
  clustering of v-vesicles: they formed larger clusters; also recorded: The vesicle cluster was significantly larger than that observed in (C)
Syb2-carrying v-vesicles; α-Syn monomers together with oligomers, lipid:oligomers:monomers 200:1:20
  number of vesicles per cluster: 123.5 ± 11.5 vesicles
[3]
  change in amounts of oligomers and monomers: No change in the intensities of the oligomers, multimers, and monomer was observed; also recorded: no change in the amounts of oligomers and monomers was observed
[4]
  effect on SNARE-dependent vesicle docking: beneficial for SNARE-dependent vesicle docking

— paper PMC8155056, “Cooperative inhibition of SNARE-mediated vesicle fusion by α-synuclein monomers and oligomers” (Scientific Reports, 2021)
